Values of other authors as cited in paper PMC5144109 (Analytical Chemistry, 2016).
“Also recorded” adds a separate entry of the source. Square brackets hold non-standard residues; d marks the D form. Ends that are not written are not given here.

Key:
aminopeptidase M (APM) = biological target: T1, aminopeptidase M (APM) (Sus scrofa, UniProt P15145); conditions: positive and negative control of the digestion experiments
T1 sequence (P15145 1-963): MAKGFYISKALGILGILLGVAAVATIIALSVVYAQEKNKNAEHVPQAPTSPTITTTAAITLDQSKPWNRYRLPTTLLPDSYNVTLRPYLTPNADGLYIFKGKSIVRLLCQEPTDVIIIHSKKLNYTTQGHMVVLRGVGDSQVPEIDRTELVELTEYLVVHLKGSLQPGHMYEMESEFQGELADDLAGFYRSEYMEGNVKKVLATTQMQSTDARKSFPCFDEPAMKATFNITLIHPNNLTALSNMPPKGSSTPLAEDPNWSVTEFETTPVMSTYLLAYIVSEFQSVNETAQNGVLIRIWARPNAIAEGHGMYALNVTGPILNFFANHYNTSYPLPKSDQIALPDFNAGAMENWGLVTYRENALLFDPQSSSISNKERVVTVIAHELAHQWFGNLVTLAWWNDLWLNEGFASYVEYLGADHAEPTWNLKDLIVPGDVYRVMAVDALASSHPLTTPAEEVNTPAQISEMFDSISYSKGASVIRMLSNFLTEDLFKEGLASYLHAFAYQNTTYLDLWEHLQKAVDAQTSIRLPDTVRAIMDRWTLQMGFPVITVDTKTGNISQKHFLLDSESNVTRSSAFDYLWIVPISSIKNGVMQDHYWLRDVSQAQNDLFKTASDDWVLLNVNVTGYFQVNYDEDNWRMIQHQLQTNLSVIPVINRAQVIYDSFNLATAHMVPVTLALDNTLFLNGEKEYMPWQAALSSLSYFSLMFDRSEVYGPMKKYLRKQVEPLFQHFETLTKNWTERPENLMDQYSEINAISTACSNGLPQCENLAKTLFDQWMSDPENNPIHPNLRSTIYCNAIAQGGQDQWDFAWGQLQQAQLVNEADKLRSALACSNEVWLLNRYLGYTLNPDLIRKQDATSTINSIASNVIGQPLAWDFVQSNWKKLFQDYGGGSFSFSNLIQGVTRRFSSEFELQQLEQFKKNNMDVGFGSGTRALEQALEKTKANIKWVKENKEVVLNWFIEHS

opioid receptors = conditions: in mammals

Row | Substance | digestion by APM (control peptides) (aminopeptidase M (APM)) | potency compared with morphine (opioid receptors)
1 | Human angiotensin I acetate salt hydrate | is digested by APM | –
2 | Asn-[dW]-Phe-NH2 [NdWFamide] | is not digested by APM; also recorded: known to resist degradation by APM | –
3 | dermorphin | – | higher potency than morphine
